In ChEMBL document CHEMBL1201862, “PubChem BioAssay data set” (2004):
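In this assay, cells in 96-well plates receive the compound at five concentrations for 48 hours. Endpoints are linearly interpolated between the surrounding concentrations. GI50: concentration for 50% inhibition of growth.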 Active and inactive are the calls of the source. Rule as the data show it: active = GI50 up to about 1.1 µM and inactive = higher.

Columns and labels:
Experiment in all cases: NCI anticancer screen, dose series, 48 h
COLO 205 = system: COLO 205
SF-268 = system: SF-268
EKVX = system: EKVX
OVCAR-5 = system: OVCAR-5
HL-60 = system: HL-60
A498 = system: A498
IGROV-1 = system: IGROV-1
M14 = system: M14
MOLT-4 = system: MOLT-4
HCT-15 = system: HCT-15
SNB-19 = system: SNB-19
SR = system: SR
CAKI-1 = system: CAKI-1
KM12 = system: KM12
SN12C = system: SN12C
Malme-3M = system: Malme-3M
NCI-H226 = system: NCI-H226
SNB-75 = system: SNB-75

| Structure (SMILES) | GI50 (COLO 205) | GI50 (SF-268) | GI50 (EKVX) | GI50 (OVCAR-5) | GI50 (HL-60) | GI50 (A498) | GI50 (IGROV-1) | GI50 (M14) | GI50 (MOLT-4) | GI50 (HCT-15) [µM] | GI50 (SNB-19) | GI50 (SR) | GI50 (CAKI-1) | GI50 (KM12) | GI50 (SN12C) | GI50 (Malme-3M) | GI50 (NCI-H226) | GI50 (SNB-75) |
| --- | --- | --- | --- | --- | --- | --- | --- | --- | --- | --- | --- | --- | --- | --- | --- | --- | --- | --- |
| COCC(OC)C(CC=C(C#N)C#N)OC (stereo not drawn) | > 100 µM (inactive) | > 100 µM (inactive) | > 100 µM (inactive) | > 100 µM (inactive) | > 100 µM (inactive) | > 100 µM (inactive) | > 100 µM (inactive) | > 100 µM (inactive) | > 100 µM (inactive) | > 100 | > 100 µM (inactive) | > 100 µM (inactive) | > 100 µM (inactive) | > 100 µM (inactive) | > 100 µM (inactive) | > 100 µM (inactive) | – | – |
| CCN(CC)CCNc1ccc2nnn3c4ccc(OC)cc4c(=O)c1c23 | 6.5 µM (inactive) | 7.33 µM (inactive) | – | 11 µM (inactive) | 3.94 µM (inactive) | 13.3 µM (inactive) | 7.55 µM (inactive) | 10.5 µM (inactive) | 1.93 µM (inactive) | 6.17 | 11.4 µM (inactive) | 1.59 µM (inactive) | 12.2 µM (inactive) | 3.27 µM (inactive) | 5.96 µM (inactive) | 10.4 µM (inactive) | 6.3 µM (inactive) | 7.82 µM (inactive) |
| CC1SC2=NC3=C(c4ccccc4C3=O)C(c3ccc(Br)cc3)N2C1=O (stereo not drawn) | 90.2 µM (inactive) | 37.9 µM (inactive) | 60 µM (inactive) | > 100 µM (inactive) | 22.4 µM (inactive) | > 100 µM (inactive) | > 100 µM (inactive) | 96.4 µM (inactive) | 31.6 µM (inactive) | 52.2 | 38 µM (inactive) | – | 80.9 µM (inactive) | > 100 µM (inactive) | 37.8 µM (inactive) | 44.3 µM (inactive) | 23.2 µM (inactive) | 24.5 µM (inactive) |
| Cn1c(=O)nc2n(-c3cccc(Br)c3)c3ccccc3nc-2c1=O | 1.68 µM (inactive) | 8.91 µM (inactive) | 3.79 µM (inactive) | 13.3 µM (inactive) | 2.54 µM (inactive) | 10.2 µM (inactive) | 7.76 µM (inactive) | 2.81 µM (inactive) | – | 4.06 | 1.38 µM (inactive) | – | 12.3 µM (inactive) | 4.8 µM (inactive) | 4.78 µM (inactive) | 2.71 µM (inactive) | 8.38 µM (inactive) | 9.82 µM (inactive) |
| CSc1nc(-c2ccccc2)c2c(n1)-c1ccccc1CC2 | > 100 µM (inactive) | > 100 µM (inactive) | > 100 µM (inactive) | > 100 µM (inactive) | > 100 µM (inactive) | > 100 µM (inactive) | > 100 µM (inactive) | > 100 µM (inactive) | > 100 µM (inactive) | – | > 100 µM (inactive) | > 100 µM (inactive) | > 100 µM (inactive) | > 100 µM (inactive) | > 100 µM (inactive) | > 100 µM (inactive) | > 100 µM (inactive) | > 100 µM (inactive) |
| CCOC(=O)C1(C(=O)OCC)OC(=O)NC2=C1CCCC2 | > 100 µM (inactive) | > 100 µM (inactive) | > 100 µM (inactive) | > 100 µM (inactive) | > 100 µM (inactive) | > 100 µM (inactive) | > 100 µM (inactive) | – | > 100 µM (inactive) | – | > 100 µM (inactive) | – | – | > 100 µM (inactive) | – | > 100 µM (inactive) | – | > 100 µM (inactive) |
| O=C(Sc1sc(=S)sc1SC(=O)c1ccccc1)c1ccccc1 | > 100 µM (inactive) | 62.1 µM (inactive) | 53.8 µM (inactive) | 33.1 µM (inactive) | > 100 µM (inactive) | 31.5 µM (inactive) | 43.2 µM (inactive) | 68.9 µM (inactive) | > 100 µM (inactive) | > 100 | 37.1 µM (inactive) | – | > 100 µM (inactive) | 37.4 µM (inactive) | 93.5 µM (inactive) | 78.3 µM (inactive) | – | 30.3 µM (inactive) |
| c1ccc2cc3c(cc2c1)OP1(Oc2cccc4cccnc24)(O3)Oc2cc3ccccc3cc2O1 | 6.32 µM (inactive) | 4.81 µM (inactive) | 3.37 µM (inactive) | 4.43 µM (inactive) | 1.63 µM (inactive) | 18.2 µM (inactive) | 5.36 µM (inactive) | – | 1.57 µM (inactive) | 3.05 | 24.3 µM (inactive) | – | 4.88 µM (inactive) | 5.31 µM (inactive) | 14.8 µM (inactive) | 7.21 µM (inactive) | 9.89 µM (inactive) | 18.6 µM (inactive) |
| O=c1oc2cc(O)ccc2c2oc3cc(O)ccc3c12 [COUMESTROL] | 26 µM (inactive) | 53.7 µM (inactive) | 77.4 µM (inactive) | > 125 µM (inactive) | 6.93 µM (inactive) | 0.248 µM (active) | 79.8 µM (inactive) | – | 13.8 µM (inactive) | 54.5 | 47.6 µM (inactive) | – | 49.9 µM (inactive) | 111 µM (inactive) | 13.2 µM (inactive) | 79.6 µM (inactive) | 4.18 µM (inactive) | 94.8 µM (inactive) |
